Assay results from ChEMBL document CHEMBL1201862, “PubChem BioAssay data set” (2004).
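1) Cells in 96-well plates. 2) Compound, 48 h, 5 concentrations. 3) Linear interpolation between surrounding doses. 4) Unreached endpoint = highest concentration. GI50: concentration for 50% inhibition of growth.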 Calls of active or inactive are those of the source. Rule as the data show it: active = GI50 up to about 1.1 µM and inactive = higher.

Legend:
Assay in all cases: growth of human tumour cells (NCI), 48 h
786-0 = tested on: 786-0
A549 = tested on: A549
ACHN = tested on: ACHN
CCRF-CEM = tested on: CCRF-CEM
COLO 205 = tested on: COLO 205
DLD-1 = tested on: DLD-1
DMS-114 = tested on: DMS-114
EKVX = tested on: EKVX
HCC 2998 = tested on: HCC 2998
HCT-15 = tested on: HCT-15
HL-60 = tested on: HL-60
HOP-18 = tested on: HOP-18
HOP-92 = tested on: HOP-92
IGROV-1 = tested on: IGROV-1
K562 = tested on: K562
KM12 = tested on: KM12
M14 = tested on: M14
M19-MEL = tested on: M19-MEL
MOLT-4 = tested on: MOLT-4
Malme-3M = tested on: Malme-3M
NCI-H226 = tested on: NCI-H226
NCI-H23 = tested on: NCI-H23
NCI-H522 = tested on: NCI-H522
OVCAR-3 = tested on: OVCAR-3
OVCAR-5 = tested on: OVCAR-5
OVCAR-8 = tested on: OVCAR-8
RPMI-8226 = tested on: RPMI-8226
RXF 393 = tested on: RXF 393
SF-268 = tested on: SF-268
SF-295 = tested on: SF-295
SF-539 = tested on: SF-539
SK-MEL-28 = tested on: SK-MEL-28
SK-MEL-2 = tested on: SK-MEL-2
SK-OV-3 = tested on: SK-OV-3
SN12C = tested on: SN12C
SNB-19 = tested on: SNB-19
SNB-75 = tested on: SNB-75
SR = tested on: SR
SW-620 = tested on: SW-620
TK-10 = tested on: TK-10
UACC-257 = tested on: UACC-257
UACC-62 = tested on: UACC-62
UO-31 = tested on: UO-31
XF498 = tested on: XF498
CAKI-1 = tested on: CAKI-1
DMS-273 = tested on: DMS-273
HOP-62 = tested on: HOP-62
HT-29 = tested on: HT-29
KM-20L2 = tested on: KM-20L2
LOX IMVI = tested on: LOX IMVI
LXFL 529 = tested on: LXFL 529
NCI-H460 = tested on: NCI-H460
OVCAR-4 = tested on: OVCAR-4
SNB-78 = tested on: SNB-78
U-251 = tested on: U-251
A498 = tested on: A498
HCT-116 = tested on: HCT-116
SK-MEL-5 = tested on: SK-MEL-5

Measured: GI50

C=CCC1(C(=O)OC(C)(C)C)C(OC)=C(C(=O)OC(C)(C)C)C2C1C(C(=O)OC(C)(C)C)=C(OC)C2(CC=C)C(=O)OC(C)(C)C (configuration not stated)
> 100 µM: HCT-15
inactive: 786-0 > 100 µM | A549 > 100 µM | ACHN > 100 µM | CCRF-CEM > 100 µM | COLO 205 > 100 µM | DLD-1 > 100 µM | DMS-114 > 100 µM | EKVX > 100 µM | HCC 2998 > 100 µM | HL-60 > 100 µM | HOP-18 > 100 µM | HOP-92 > 100 µM | IGROV-1 > 100 µM | K562 > 100 µM | KM12 > 100 µM | M14 > 100 µM | M19-MEL > 100 µM | MOLT-4 > 100 µM | Malme-3M > 10 µM | NCI-H226 > 100 µM | NCI-H23 > 100 µM | NCI-H522 > 100 µM | OVCAR-3 > 100 µM | OVCAR-5 > 100 µM | OVCAR-8 > 100 µM | RPMI-8226 > 100 µM | RXF 393 > 100 µM | SF-268 > 100 µM | SF-295 > 100 µM | SF-539 > 100 µM | SK-MEL-28 > 100 µM | SK-MEL-2 > 100 µM | SK-OV-3 > 100 µM | SN12C > 100 µM | SNB-19 > 100 µM | SNB-75 > 100 µM | SR > 100 µM | SW-620 > 100 µM | TK-10 64.6 µM | UACC-257 > 100 µM | UACC-62 > 100 µM | UO-31 > 100 µM | XF498 > 100 µM

Cc1cc(C)c2c(c1)Nc1ccccc1P2c1ccccc1 (configuration not stated)
inactive: 786-0 36.5 µM | A549 32.1 µM | ACHN > 10 µM | CAKI-1 11 µM | COLO 205 > 100 µM | DLD-1 23.5 µM | DMS-114 > 100 µM | DMS-273 21.7 µM | EKVX 23.5 µM | HCC 2998 26.6 µM | HL-60 23.9 µM | HOP-62 25.8 µM | HOP-92 30.9 µM | HT-29 20.3 µM | IGROV-1 27.8 µM | K562 24.5 µM | KM-20L2 30.6 µM | LOX IMVI 27.2 µM | LXFL 529 29.2 µM | M14 36.8 µM | MOLT-4 4.51 µM | Malme-3M 24.5 µM | NCI-H23 25.9 µM | NCI-H460 22.3 µM | OVCAR-3 24.6 µM | OVCAR-4 26.9 µM | OVCAR-8 31.6 µM | RPMI-8226 3.89 µM | RXF 393 29.2 µM | SF-268 59.6 µM | SF-295 20 µM | SK-MEL-28 44.1 µM | SK-OV-3 > 100 µM | SN12C 9.82 µM | SNB-19 26.7 µM | SNB-75 23.7 µM | SNB-78 41.8 µM | SW-620 39.8 µM | TK-10 40.2 µM | U-251 31.7 µM | UACC-62 28.9 µM | UO-31 19.1 µM | XF498 4.86 µM
16.9 µM: HCT-15

O=C(CC/C=C(/CS(=O)(=O)c1ccccc1)S(=O)(=O)c1ccccc1)c1ccccc1
inactive: A498 > 100 µM | A549 > 100 µM | ACHN > 100 µM | CCRF-CEM 12.1 µM | DLD-1 > 100 µM | DMS-114 21.7 µM | DMS-273 > 100 µM | EKVX > 100 µM | HCC 2998 > 100 µM | HCT-116 > 100 µM | HL-60 42.9 µM | HOP-18 > 100 µM | HOP-62 > 100 µM | HOP-92 > 100 µM | HT-29 75 µM | IGROV-1 > 100 µM | K562 > 100 µM | KM-20L2 > 100 µM | KM12 > 100 µM | LOX IMVI > 100 µM | M14 > 100 µM | MOLT-4 > 100 µM | Malme-3M > 10 µM | NCI-H226 > 100 µM | NCI-H23 > 100 µM | NCI-H460 > 100 µM | NCI-H522 10.4 µM | OVCAR-3 85.5 µM | OVCAR-4 > 100 µM | OVCAR-5 > 100 µM | OVCAR-8 > 100 µM | RPMI-8226 > 100 µM | RXF 393 70.8 µM | SF-295 > 100 µM | SF-539 > 100 µM | SK-MEL-28 > 100 µM | SK-MEL-2 50.8 µM | SK-MEL-5 > 100 µM | SK-OV-3 44 µM | SN12C > 100 µM | SNB-19 > 100 µM | SNB-75 25.6 µM | SR 56.8 µM | SW-620 > 100 µM | TK-10 > 100 µM | U-251 72.3 µM | UACC-257 > 100 µM | UACC-62 22.2 µM | UO-31 > 100 µM | XF498 95.9 µM
> 100 µM: HCT-15

NC(=O)c1ccccc1[N+](=O)[O-]
> 100 µM: HCT-15
inactive: 786-0 > 100 µM | A498 > 100 µM | A549 > 100 µM | ACHN > 100 µM | CAKI-1 > 100 µM | CCRF-CEM > 10 µM | COLO 205 > 100 µM | DMS-114 > 100 µM | DMS-273 > 100 µM | EKVX > 100 µM | HCC 2998 > 100 µM | HCT-116 > 100 µM | HOP-18 > 100 µM | HOP-62 > 100 µM | HOP-92 > 100 µM | HT-29 > 100 µM | IGROV-1 > 100 µM | K562 > 100 µM | KM-20L2 > 100 µM | M19-MEL > 100 µM | MOLT-4 > 100 µM | Malme-3M > 100 µM | OVCAR-3 > 100 µM | OVCAR-8 > 100 µM | RPMI-8226 > 100 µM | SF-268 > 100 µM | SF-539 > 100 µM | SK-MEL-28 > 100 µM | SK-MEL-5 > 100 µM | SN12C > 100 µM | SNB-19 > 100 µM | SNB-75 > 100 µM | SNB-78 > 100 µM | SW-620 > 100 µM | U-251 > 100 µM | UACC-62 > 100 µM | XF498 > 100 µM
